From patent US8563714B2, “Bridged spiro [2.4] heptane derivatives as ALX receptor and/or FPRL2 agonists” (Actelion Pharmaceuticals Ltd., priority 2009, dated 2013)

Experiments:
human ALX receptor = target: T1, human ALX receptor (Homo sapiens, UniProt P25090); assay: Intracellular calcium measurements (FLIPR), agonistic activity in HEK293-hALXR-Gα16 cells; type: cell-based; details: Fluo-4 calcium FLIPR, normalized to WKYMVm 10 nM
T1 construct: expressed in transfected cells; host or cells: HEK293 (HEK293-hALXR-Gα16)
T1 sequence (P25090 1-351): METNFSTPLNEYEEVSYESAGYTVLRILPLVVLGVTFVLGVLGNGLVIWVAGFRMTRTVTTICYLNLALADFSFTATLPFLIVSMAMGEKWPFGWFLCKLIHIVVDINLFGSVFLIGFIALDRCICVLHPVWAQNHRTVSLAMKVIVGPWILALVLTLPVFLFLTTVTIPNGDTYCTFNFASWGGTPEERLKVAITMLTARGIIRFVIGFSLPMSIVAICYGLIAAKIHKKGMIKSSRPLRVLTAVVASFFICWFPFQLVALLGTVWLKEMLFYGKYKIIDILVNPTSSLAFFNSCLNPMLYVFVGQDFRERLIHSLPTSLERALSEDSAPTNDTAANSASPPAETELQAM
Outline: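 Agonist-induced calcium flux was recorded by FLIPR (488/540 nm) in HEK293-hALXR-Gα16 cells pre-loaded with Fluo-4 AM (1 μM, 60 min, 37°C). Peak signal above baseline, after subtracting buffer addition, was expressed relative to WKYMVm at 10 nM final.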

human FPRL2 = target: T2, human FPRL2 (Homo sapiens, UniProt P25089); assay: Intracellular calcium measurements (FLIPR), agonistic activity in HEK293-hFPRL2-Gα16 cells; type: cell-based; details: Fluo-4 calcium FLIPR, normalized to GLY14-Humanin 100 nM
T2 construct: expressed in transfected cells; host or cells: HEK293 (HEK293-hFPRL2-Gα16)
T2 sequence (P25089 1-353): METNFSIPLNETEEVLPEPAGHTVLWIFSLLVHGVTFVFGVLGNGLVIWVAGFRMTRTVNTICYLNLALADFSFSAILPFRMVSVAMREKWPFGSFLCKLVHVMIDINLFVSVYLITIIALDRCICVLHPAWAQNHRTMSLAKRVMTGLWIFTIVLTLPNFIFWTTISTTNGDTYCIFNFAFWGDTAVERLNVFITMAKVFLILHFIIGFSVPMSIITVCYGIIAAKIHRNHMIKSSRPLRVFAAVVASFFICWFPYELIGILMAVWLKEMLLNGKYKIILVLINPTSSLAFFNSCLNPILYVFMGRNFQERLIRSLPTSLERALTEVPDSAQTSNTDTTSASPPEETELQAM
Outline: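 Peak values after baseline subtraction are expressed relative to 100 nM Gly14-Humanin; compounds diluted in assay buffer from 10 mM DMSO stocks.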

## CC(C)(C)OC(=O)N1CC(NC(=O)[C@H]2[C@H](C(=O)Nc3ccc(Br)cc3)[C@@H]3C=C[C@H]2C32CC2)C1 (racemic) [Example 98, (5R*)—N^5-(4-Bromophenyl)-(6R*)—N^6—(N-tert-butoxycarbonyl-azetidin-3-yl)-(4S*,7R*)-[4,7-ethenylene-spiro[2.4]heptane]-5,6-dicarboxamide]
Human ALX receptor
  EC50: 477 nM
Human FPRL2
  EC50: 582 nM

## Cc1onc(-c2ccccc2)c1CNC(=O)[C@H]1[C@H](C(=O)Nc2ccc(Br)cc2)[C@@H]2C=C[C@H]1C21CC1 (racemic) [Example 101, (5R*)—N^5-(4-Bromophenyl)-(6R*)—N^6-[(5-methyl-3-phenyl-isoxazol-4-yl)-methyl]-(4S*,7R*)-[4,7-ethenylene-spiro[2.4]heptane]-5,6-dicarboxamide]
Human ALX receptor
  EC50: 812 nM
Human FPRL2
  EC50: 457 nM

## NC(=O)CCNC(=O)[C@H]1[C@H](C(=O)Nc2ccc(Br)cc2)[C@@H]2CC[C@H]1C21CC1 (racemic) [Example 102, (5R*)—N^5-(4-Bromophenyl)-(6R*)—N^6-(2-carbamoyl-ethyl)-(4S*,7R*)-[4,7-ethylene-spiro[2.4]heptane]-5,6-dicarboxamide]
Human ALX receptor
  EC50: 0.46 nM
Human FPRL2
  EC50: > 25000 nM

## COCCCNC(=O)[C@H]1[C@H](C(=O)Nc2ccc(Br)cc2)[C@@H]2CC[C@H]1C21CC1 (racemic) [Example 103, (5R*)—N^5-(4-Bromophenyl)-(6R*)—N^6-(3-methoxy-propyl)-(4S*,7R*)-[4,7-ethylene-spiro[2.4]heptane]-5,6-dicarboxamide]
Human ALX receptor
  EC50: 4.8 nM
Human FPRL2
  EC50: 6920 nM

## O=C(NCCN1CCNC1=O)[C@H]1[C@H](C(=O)Nc2ccc(Br)cc2)[C@@H]2CC[C@H]1C21CC1 (racemic) [Example 105, (5R*)—N^5-(4-Bromophenyl)-(6R*)—N^6-[(2-imidazolidin-2-on-1-yl)-ethyl]-(4S*,7R*)-[4,7-ethylene-spiro[2.4]heptane]-5,6-dicarboxamide]
Human ALX receptor
  EC50: 2.4 nM
Human FPRL2
  EC50: 3730 nM

## O=C(NC1CC1)[C@H]1[C@H](C(=O)Nc2ccc(Br)cc2)[C@@H]2CC[C@H]1C21CC1 (racemic) [Example 106, (5R*)—N^5-(4-Bromophenyl)-(6R*)—N^6-(cyclopropyl)-(4S*,7R*)-[4,7-ethylene-spiro[2.4]heptane]-5,6-dicarboxamide]
Human ALX receptor
  EC50: 82 nM
Human FPRL2
  EC50: 2930 nM

## O=C(NCCCO)[C@H]1[C@H](C(=O)Nc2ccc(Br)cc2)[C@@H]2CC[C@H]1C21CC1 (racemic) [Example 107, (5R*)—N^5-(4-Bromophenyl)-(6R*)—N^6-(3-hydroxy-propyl)-(4S*,7R*)-[4,7-ethylene-spiro[2.4]heptane]-5,6-dicarboxamide]
Human ALX receptor
  EC50: 1.8 nM
Human FPRL2
  EC50: 2270 nM

## O=C(NCCCn1ccnc1)[C@H]1[C@H](C(=O)Nc2ccc(Br)cc2)[C@@H]2CC[C@H]1C21CC1 (racemic) [Example 108, (5R*)—N^5-(4-Bromophenyl)-(6R*)—N^6-(3-(1H-imidazol-1-yl)-propyl)-(4S*,7R*)-[4,7-ethylene-spiro[2.4]heptane]-5,6-dicarboxamide]
Human ALX receptor
  EC50: 4.1 nM
Human FPRL2
  EC50: 1480 nM

## CN(C)CCCCCNC(=O)[C@H]1[C@H](C(=O)Nc2ccc(Br)cc2)[C@@H]2CC[C@H]1C21CC1 (racemic) [Example 109, (5R*)—N^5-(4-Bromophenyl)-(6R*)—N^6-(5-(dimethyl-amino)-pentyl)-(4S*,7R*)-[4,7-ethylene-spiro[2.4]heptane]-5,6-dicarboxamide]
Human ALX receptor
  EC50: 0.7 nM
Human FPRL2
  EC50: 666 nM

## O=C(NCCCN1CCCC1)[C@H]1[C@H](C(=O)Nc2ccc(Br)cc2)[C@@H]2CC[C@H]1C21CC1 (racemic) [Example 110, (5R*)—N^5-(4-Bromophenyl)-(6R*)—N^6-(3-pyrrolidin-1-yl-propyl)-(4S*,7R*)-[4,7-ethylene-spiro[2.4]heptane]-5,6-dicarboxamide]
Human ALX receptor
  EC50: 16 nM
Human FPRL2
  EC50: 307 nM

## CN1CCN(CCCNC(=O)[C@H]2[C@H](C(=O)Nc3ccc(Br)cc3)[C@@H]3CC[C@H]2C32CC2)CC1 (racemic) [Example 111, (5R*)—N^5-(4-Bromophenyl)-(6R*)—N^6-(3-(4-methyl-piperazin-1-yl)-propyl)-(4S*,7R*)-[4,7-ethylene-spiro[2.4]heptane]-5,6-dicarboxamide]
Human ALX receptor
  EC50: 1.3 nM
Human FPRL2
  EC50: 71 nM

## O=C(NCCCCN1CCCC1)C1C(C(=O)Nc2ccc(Br)nc2)C2C=CC1C21CC1 (racemic) [Example 114, (5R*)—N^5-(2-Bromopyridin-5-yl)-(6R*)—N^6-(4-pyrrolidin-1-yl-butyl)-(4S*,7R*)-[4,7-ethenylene-spiro[2.4]heptane]-5,6-dicarboxamide]
Human ALX receptor
  EC50: 1.4 nM
Human FPRL2
  EC50: 532 nM

## COc1ccc(NC(=O)C2C(C(=O)NCCCCN3CCCC3)C3C=CC2C32CC2)cc1 (racemic) [Example 115, (5R*)—N^5-(4-Methoxyphenyl)-(6R*)—N^6-(4-pyrrolidin-1-yl-butyl)-(4S*,7R*)-[4,7-ethenylene-spiro[2.4]heptane]-5,6-dicarboxamide]
Human ALX receptor
  EC50: 2 nM
Human FPRL2
  EC50: 204 nM

## O=C(NCCCCN1CCCC1)C1C(C(=O)Nc2ccc(Cl)nc2)C2C=CC1C21CC1 (racemic) [Example 116, (5R*)—N^5-(2-Chloro-pyridin-5-yl)-(6R*)—N^6-(4-pyrrolidin-1-yl-butyl)-(4S*,7R*)-[4,7-ethenylene-spiro[2.4]heptane]-5,6-dicarboxamide]
Human ALX receptor
  EC50: 7.8 nM
Human FPRL2
  EC50: 891 nM

## O=C(NCCCCN1CCCC1)[C@H]1[C@H](C(=O)Nc2ccc3scnc3c2)[C@@H]2C=C[C@H]1C21CC1 (racemic) [Example 117, (5R*)—N^5-(Benzothiazol-5-yl)-(6R*)—N^6-(4-pyrrolidin-1-yl-butyl)-(4S*,7R*)-[4,7-ethenylene-spiro[2.4]heptane]-5,6-dicarboxamide]
Human ALX receptor
  EC50: 10 nM
Human FPRL2
  EC50: 359 nM

## O=C(NCCCCN1CCCC1)C1C(C(=O)NCc2ccc(Br)cc2)C2C=CC1C21CC1 (racemic) [Example 118, (5R*)—N^5-(4-Bromophenyl-methyl)-(6R*)—N^6-(4-pyrrolidin-1-yl-butyl)-(4S*,7R*)-[4,7-ethenylene-spiro[2.4]heptane]-5,6-dicarboxamide]
Human ALX receptor
  EC50: 47 nM
Human FPRL2
  EC50: 140 nM

## O=C(NCCCCN1CCCC1)C1C(C(=O)Nc2ccc(Br)cn2)C2C=CC1C21CC1 (racemic) [Example 119, (5R*)—N^5-(5-Bromo-pyridin-2-yl)-(6R*)—N^6-(4-pyrrolidin-1-yl-butyl)-(4S*,7R*)-[4,7-ethenylene-spiro[2.4]heptane]-5,6-dicarboxamide]
Human ALX receptor
  EC50: 17 nM
Human FPRL2
  EC50: 404 nM

## O=C(NCCCCN1CCCC1)[C@H]1[C@H](C(=O)Nc2ncc(Br)s2)[C@@H]2C=C[C@H]1C21CC1 (racemic) [Example 120, (5R*)—N^5-(5-Bromo-thiazol-2-yl)-(6R*)—N^6-(4-pyrrolidin-1-yl-butyl)-(4S*,7R*)-[4,7-ethenylene-spiro[2.4]heptane]-5,6-dicarboxamide]
Human ALX receptor
  EC50: 17 nM
Human FPRL2
  EC50: 363 nM

## Cc1ccc(NC(=O)[C@H]2[C@H](C(=O)NCCCCN3CCCC3)[C@H]3C=C[C@@H]2C32CC2)nc1 (racemic) [Example 121, (5R*)—N^5-(5-Methyl-pyridin-2-yl)-(6R*)—N^6-(4-pyrrolidin-1-yl-butyl)-(4S*,7R*)-[4,7-ethenylene-spiro[2.4]heptane]-5,6-dicarboxamide]
Human ALX receptor
  EC50: 95 nM
Human FPRL2
  EC50: 454 nM

## CCCCCNC(=O)[C@H]1[C@H](C(=O)NCCCCN2CCCC2)[C@H]2C=C[C@@H]1C21CC1 (racemic) [Example 122, (5R*)—N^5-Pentyl-(6R*)—N^6-(4-pyrrolidin-1-yl-butyl)-(4S*,7R*)-[4,7-ethenylene-spiro[2.4]heptane]-5,6-dicarboxamide]
Human ALX receptor
  EC50: 79 nM
Human FPRL2
  EC50: 496 nM

## Cc1ccc(CNC(=O)[C@H]2[C@H](C(=O)NCCCCN3CCCC3)[C@H]3C=C[C@@H]2C32CC2)cc1 (racemic) [Example 123, (5R*)—N^5-[(4-Methyl-phenyl)-methyl]-(6R*)—N^6-(4-pyrrolidin-1-yl-butyl)-(4S*,7R*)-[4,7-ethenylene-spiro[2.4]heptane]-5,6-dicarboxamide]
Human ALX receptor
  EC50: 46 nM
Human FPRL2
  EC50: 332 nM

## COC(=O)CCNC(=O)[C@H]1[C@H](C(=O)NCCCCN2CCCC2)[C@H]2C=C[C@@H]1C21CC1 (racemic) [Example 124, (5R*)—N^5-(2-Methoxycarbonyl-ethyl)-(6R*)—N^6-(4-pyrrolidin-1-yl-butyl)-(4S*,7R*)-[4,7-ethenylene-spiro[2.4]heptane]-5,6-dicarboxamide]
Human ALX receptor
  EC50: 52 nM
Human FPRL2
  EC50: 1150 nM
